Values belong to the molecule of their own block, whether it stands above or below them.
What was measured:
[1] = test system: human neutrophils (PMNLs), 5-LOX product synthesis; experiment: 5-LOX metabolite synthesis in human neutrophils stimulated with opsonized S. typhimurium (HPLC); assay type: cell-based
Experimental: Figure 1 Effects of LRR11 and ODNs on the formation of LTB4 (A,B) and the sum of 5-LOX metabolites (ω-OH-LTB4, LTB4 and its isomers, and 5-HETE) (C) in human PMNLs. PMNLs (2 × 10^7) were incubated for 15 min at 37 °C without (black bars) or with 1 μM LRR11 (A, LRR11_first); then ODNs and LRR11 or LPS were added; various ways of adding ODN and LRR11 peptide are indicated. In control samples, Hanks’ solution was added instead of ODNs. After 20 min, 0.5 × 10^9 S. typhimurium bacterial cells were added for a further 15 min. The 5-LOX products were determined using HPLC. Values indicate mean ± SEM of five independent experiments performed in duplicate. * p < 0.05, ** p < 0.01, *** p < 0.005, compared with the control. # p < 0.05, ## p < 0.01 for pairs of data compared as indicated by two-way ANOVA followed by Tukey’s multiple comparison test.
Figure 3 Synthesis of the 5-LOX metabolites in PMNLs exposed to opsonized S. typhimurium bacteria in the presence of the RAGE antagonist FPS-ZM1. PMNLs (2 × 10^7) were incubated for 15 min at 37 °C without additives or with 0.15 µM FPS-ZM1, for the next 20 min the mixture was incubated with 1 µM ODNs without (black bars) or with 1 µM LRR11 (gray bars) before adding 5 × 10^8 S. typhimurium for 15 min. In control samples, Hanks’ solution was added instead of ODNs. The 5-LOX products were determined using HPLC. Graphical data are presented for LTB4 (A) or the sum of LTB4 and its isomers, ω-OH-LTB4 and 5-HETE, designed as Σ5LOX products (B).
Human neutrophils were isolated from freshly taken citrate-anticoagulated peripheral blood from healthy individuals using standard methods. Leukocyte-rich plasma was prepared by sedimentation of erythrocytes with 3% dextran T-500 at room temperature. For purification of granulocytes, centrifugation through Ficoll-Paque (density 1.077 g/mL) was used, followed by hypotonic lysis of the remaining erythrocytes. […] All methods were performed in accordance with the relevant instructions and regulations of the Ministry of Health of the Russian Federation and local legislation.
Bacteria (S. typhimurium IE 147 strain) obtained from the Collection of Gamaleya National Research Center of Epidemiology and Microbiology (Moscow, Russia) were grown in Luria–Bertani broth to a concentration of 1 × 10^9 colony-forming units (CFU)/mL. The bacteria were collected by centrifugation at 2000 g and opsonized immediately before the experiment for 30 min in 20% (v/v) fresh serum from the same donor whose blood was used to isolate neutrophils. Repeated centrifugation in Dulbecco’s solution was used to wash the bacteria.
The cell suspension (2 × 10^7 PMNLs in HBSS/HEPES, reaction volume of 6 mL) was cultured for 15 min in an incubator at 37 °C, 5% CO2. Then 1.0 µM ODN with or without 1.0 µM LRR11, or 2 µg/mL LPS, was added as indicated. After 20 min, the cells were stimulated with S. typhimurium (the ratio of bacteria to PMNLs was approximately 20:1) for the next 15 min [3]. The synthesis of 5-LOX metabolites was stopped by adding an equal volume of methanol at −20 °C with prostaglandin B2 as an internal standard. Samples were stored at −20 °C. The denatured cell suspension was centrifuged, and supernatants designated as water/methanol extracts.
To purify the water/methanol extracts, solid-phase extraction was used on Sep-Pak C18 cartridges (500 mg; Macherey-Nagel, Dueren, Germany), which were conditioned first with methanol, and then with water. Major 5-LOX metabolites were identified by comparing retention times with those of known compounds, as previously described.
Table S1. Effect of Chloroquine on 5-LOX product formation in PMNLs after ODN priming followed by the addition
of opsonized S. typhimurium bacteria.

5′-biotinylated B-CpG = experiment: TSM acoustic biosensor, peptide binding to immobilized B-CpG
Source text: To characterize the interaction of the studied synthetic ODNs with the LRR11 peptide, we applied the thickness shear mode (TSM) acoustic biosensor method, which is based on the investigation of ultrasonic waves in piezoelectric materials such as AT-cut quartz. This approach involved immobilizing a 5′-biotinylated ODN on the surface of TSM transducer covered by NeutrAvidin and then adding the LRR11 peptide. An unrelated peptide (URP) with a random primary structure ([…]) was used as a negative control. The measurement procedure was divided into several steps, in which each immobilization stage was followed by washing with an appropriate buffer solution; when peptide solutions at different concentrations (from 1 to 100 nM) were added to the surface-modified TSM transducer, a wash with Hanks buffer was used before increasing the peptide concentration.
Based on Langmuir isotherm Equation (1), (1) Δfcc=Δfsmaxc/KD+c where Δfs(c) is the frequency change at a certain peptide concentration under equilibrium conditions, (Δfs)max is the maximum frequency change, c is the peptide concentration, and KD is the equilibrium constant of dissociation, we estimated the (Δfs)max and KD values for binding of the LRR11 peptide to C-CpG and B-CpG (Table 3).
Eight MHz AT-cut piezoelectric quartz crystal transducer was obtained from CH Instruments, Austin, TX, USA. The transducer was covered on both sides with thin layers of gold that served as electrodes (working area 0.2 cm^2). Prior ODNs immobilization, the crystal was carefully cleaned with basic Piranha solution (29% NH3, 30% H2O and H2O2 with volumetric 1:5:1 ratio, respectively) for 25 min. After the thorough cleaning, the crystal was positioned between two silicon O-rings in a flow-through cell. The analyte was injected into the cell using a Genie Plus syringe pump (Kent Scientific, Torrington, CT, USA) at a flow rate of 50 μL/min. Each solution was applied until the resonance frequency stabilized. The surface of the transducer was first washed with deionized water, and then 125 μg/mL NeutrAvidin (WWR International GmbH, Vienna, Austria) solution in water was applied. Approximately 15 min were required to stabilize the signal at a constant NeutrAvidin flow rate. This was followed by washing with water to rinse out all non-chemisorbed NeutrAvidin molecules. Immobilization of ODN on the gold surface of the crystals is accomplished using avidin–biotin interactions. A 1 μM 5′-biotinylated ODN solution was injected over the neutravidin-modified surface and subsequently the crystal was washed again with water. The system was then equilibrated using Hanks buffer solution. This buffer was suitable for studying LRR11–ODN binding. Then LRR11 was used at concentrations of 1, 5, 10, 50 and 100 nM […] in Hanks buffer. After each addition of LRR11, the sensor surface was washed with Hanks buffer and LRR11 with the higher concentration was added. All binding experiments were carried out at room temperature. Buffer and sample solutions were introduced in a flow-through format. A network analyzer 8712ES (Agilent Technologies, Santa Clara, CA, USA) was used to measure the impedance properties of the sensor and determine fS and Rm.

RAGE = conditions: ref [53]; cited from earlier work
Source text: Most likely, CpG-ODN can serve as a linker between various receptor molecules of neutrophils. We hypothesize that some receptors on the cell surface have a multivalent ability to bind a broad spectrum of ligands, including ODNs, and that the stimulatory action of LRR11 on the CpG-ODNs may be related to cooperation with other receptors on the neutrophil surface.

[2] = test system: human monocytes, leukotriene production; conditions: RAGE-dependent pathway; ref [55]; cited from earlier work
Source text: (§1) RAGE is shown to bind molecules, known as damage-associated molecular patterns (DAMPs), released by cells that die or are under conditions of inflammation.

[3] = test system: vascular smooth muscle cells; conditions: ref [56]; cited from earlier work
Source text: as §1

KA (5′-biotinylated B-CpG; LRR11-B-CpG complex, KA = 1/KD): 0.018 ± 0.006 nM⁻¹
−(Δfs)max (5′-biotinylated B-CpG; LRR11 to immobilized B-CpG, Langmuir fit, Hanks buffer, room temperature, LRR11 1-100 nM, three independent experiments): 26.6 ± 3.8 Hz
Molecule: 5′-tcgtcgttttgtcgttttgtcgtt-3′ [B-CpG]
effect on 5-LOX activity / leukotriene synthesis ([1]; ODN alone, 1 µM, 20 min, then opsonized S. typhimurium 15 min, Figure 1, five independent experiments in duplicate): increased leukotriene synthesis
Σ 5-LOX metabolites ([1]; Table S1, 2×10^7 PMNLs, 15 min at 37 °C without or with 5 µM Chloroquine, then ODN, after 20 min 0.5×10^9 opsonized S. typhimurium for 15 min, mean ± SEM, three independent experiments): 43.9 ± 4.1 ng/107 PMNLs
degradation of RAGE receptor after RAGE binding (RAGE): promoted rapid lysosomal degradation of the receptor

B1: HMGB1: High-Mobility Group Box 1 (HMGB1) protein, a DAMP (protein, UniProt P09429 1-215, looked up)
High mobility group protein B1: MGKGDPKKPRGKMSSYAFFVQTCREEHKKKHPDASVNFSEFSKKCSERWKTMSAKEKGKFEDMAKADKARYEREMKTYIPPKGETKKKFKDPNAPKRPPSAFFLFCSEYRPKIKGEHPGLSIGDVAKKLGEMWNNTAADDKQPYEKKAAKLKEKYEKDIAAYRAKGKPDAAKKGVVKAEKSKKKKEEEEDEEDEEDEEEEEDEEDEDEEEDDDDE
leukotriene production in human monocytes [2]: induce leukotriene production in human monocytes through a RAGE-dependent pathway
RAGE expression / LTB4 production in vascular smooth muscle cells [3]: enhanced RAGE expression along with an increase in LTB4 production
